Measured values published in ChEMBL document CHEMBL1152735, “Synthesis and antiprotozoal activity of novel 1-methylbenzimidazole derivatives” (Bioorg Med Chem, 2009).

What was measured:
Giardia intestinalis = experiment: Antiprotozoal activity against Giardia intestinalis IMSS:0981:1 trophozoites after 48 hrs; assay type: functional, organism-based; settings: Giardia duodenalis
Trichomonas vaginalis = experiment: Antiprotozoal activity against Trichomonas vaginalis GT3 trophozoites after 48 hrs; assay type: functional, organism-based; settings: GT3, 48 h

SMILES	IC50 (Giardia intestinalis) [nM]	IC50 (Trichomonas vaginalis) [nM]
CC(O)c1nc2cc(Cl)c(Cl)cc2n1C (stereo not given)	20.3	40.7
CC(=O)c1nc2ccc(Cl)cc2n1C	67	228
CC(=O)c1nc2ccccc2n1C	86.1	210
Cn1c(C(N)=O)nc2ccccc21	94.2	166
Cn1c(C(N)=O)nc2ccc(Cl)cc21	76.3	109
CC(O)c1nc2ccc(Cl)cc2n1C (stereo not given)	71.2	109
CCOC(=O)c1nc2ccccc2n1C	68.6	85.7
CC(=O)c1nc2cc(Cl)c(Cl)cc2n1C	34.9	63.7
CNC(=O)c1nc2ccccc2n1C	60.8	108
CC(O)c1nc2ccccc2n1C (stereo not given)	68.1	167
Cn1c(C(N)=O)nc2cc(Cl)c(Cl)cc21	462	134
CNC(=O)c1nc2ccc(Cl)cc2n1C	71.5	105
CCOC(=O)c1nc2ccc(Cl)cc2n1C	48.2	18.9
CNC(=O)c1nc2cc(Cl)ccc2n1C	358	358
CN(C)C(=O)c1nc2cc(Cl)c(Cl)cc2n1C	73.5	75.3
CN(C)C(=O)c1nc2cc(Cl)ccc2n1C	244	210
CCOC(=O)c1nc2cc(Cl)ccc2n1C	39.8	27.2
CCOC(=O)c1nc2cc(Cl)c(Cl)cc2n1C	27.5	29.3
CC(O)c1nc2cc(Cl)ccc2n1C (stereo not given)	37.9	94.9
Cn1c(C(N)=O)nc2cc(Cl)ccc21	234	186
CN(C)C(=O)c1nc2ccc(Cl)cc2n1C	40	238
CNC(=O)c1nc2cc(Cl)c(Cl)cc2n1C	151	225
CC(=O)c1nc2cc(Cl)ccc2n1C	50.3	132
CN(C)C(=O)c1nc2ccccc2n1C	512	430
CCCSc1ccc2[nH]c(NC(=O)OC)nc2c1 [ALBENDAZOLE]		1590
Cc1ncc([N+](=O)[O-])n1CCO [METRONIDAZOLE]		236
